Assays:
Assay in all cases: relative viability (nuclei count vs DMSO), 5 days (fraction); higher = more cells survive
201T = system: 201T
Procedure, shortened: (§1)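 Medians of duplicate plates are given as relative viability. That measure is the nuclei count in treated wells divided by the count in vehicle wells. Counts were taken on 4× images of lung cancer cell lines in 1536-well plates, 5 days after pin-tool dosing the day after seeding with one drug alone or a fixed anchor-drug dose plus five library-drug doses (not always all listed) in √10 steps.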

BEN = system: BEN
Procedure, shortened: as §1

COR-L 105 = system: COR-L 105
Procedure, shortened: as §1

EKVX = system: EKVX
Procedure, shortened: as §1

EPLC-272H = system: EPLC-272H
Procedure, shortened: as §1

H3255 = system: H3255
Procedure, shortened: as §1

HCC-44 = system: HCC-44
Procedure, shortened: as §1

HCC-827 = system: HCC-827
Procedure, shortened: as §1

LCLC-97TM1 = system: LCLC-97TM1
Procedure, shortened: as §1

LOU-NH91 = system: LOU-NH91
Procedure, shortened: as §1

LU99A = system: LU99A
Procedure, shortened: as §1

`Nc1ccn([C@@H]2O[C@H](CO)[C@@H](O)[C@@H]2O)c(=O)n1` [Cytarabine] + CS(=O)(=O)N1CCN(Cc2cc3nc(-c4cccc5[nH]ncc45)nc(N4CCOCC4)c3s2)CC1 [Pictilisib] (partner 1 µM) gave a relative viability (201T; first compound 0.005 µM) of 0.655, a relative viability (201T; first compound 0.01581 µM) of 0.707 and a relative viability (201T; first compound 0.05 µM) of 0.738. The relative viability (201T; first compound 0.1581 µM) was 0.576, the relative viability (201T; first compound 0.5 µM) was 0.416 and the relative viability (BEN; first compound 0.005 µM) was 0.571. The relative viability (BEN; first compound 0.01581 µM) was 0.504, the relative viability (BEN; first compound 0.05 µM) was 0.413 and the relative viability (BEN; first compound 0.1581 µM) was 0.279. For the same compound, the relative viability (BEN; first compound 0.5 µM) was 0.195, the relative viability (COR-L 105; first compound 0.005 µM) was 0.32 and the relative viability (COR-L 105; first compound 0.01581 µM) was 0.361. It also gave a relative viability (COR-L 105; first compound 0.05 µM) of 0.312, a relative viability (COR-L 105; first compound 0.1581 µM) of 0.311 and a relative viability (COR-L 105; first compound 0.5 µM) of 0.242. The relative viability (EKVX; first compound 0.005 µM) was 0.486, the relative viability (EKVX; first compound 0.01581 µM) was 0.362 and the relative viability (EKVX; first compound 0.05 µM) was 0.406. It also gave a relative viability (EKVX; first compound 0.1581 µM) of 0.2, a relative viability (EKVX; first compound 0.5 µM) of 0.163 and a relative viability (EPLC-272H; first compound 0.005 µM) of 0.246. The relative viability (EPLC-272H; first compound 0.01581 µM) was 0.297, the relative viability (EPLC-272H; first compound 0.05 µM) was 0.242 and the relative viability (EPLC-272H; first compound 0.1581 µM) was 0.187. It also gave a relative viability (EPLC-272H; first compound 0.5 µM) of 0.207, a relative viability (H3255; first compound 0.005 µM) of 0.438 and a relative viability (H3255; first compound 0.01581 µM) of 0.446. For the same compound, the relative viability (H3255; first compound 0.05 µM) was 0.403, the relative viability (H3255; first compound 0.1581 µM) was 0.294 and the relative viability (H3255; first compound 0.5 µM) was 0.303. It also gave a relative viability (HCC-44; first compound 0.005 µM) of 0.492, a relative viability (HCC-44; first compound 0.01581 µM) of 0.599 and a relative viability (HCC-44; first compound 0.05 µM) of 0.5. The relative viability (HCC-44; first compound 0.1581 µM) was 0.349, the relative viability (HCC-44; first compound 0.5 µM) was 0.385 and the relative viability (HCC-827; first compound 0.005 µM) was 1.05. It also gave a relative viability (HCC-827; first compound 0.01581 µM) of 0.876, a relative viability (HCC-827; first compound 0.05 µM) of 0.683 and a relative viability (HCC-827; first compound 0.1581 µM) of 0.474. It also gave a relative viability (HCC-827; first compound 0.5 µM) of 0.408, a relative viability (LCLC-97TM1; first compound 0.005 µM) of 0.207 and a relative viability (LCLC-97TM1; first compound 0.01581 µM) of 0.177. The relative viability (LCLC-97TM1; first compound 0.05 µM) was 0.0754, the relative viability (LCLC-97TM1; first compound 0.1581 µM) was 0.124 and the relative viability (LCLC-97TM1; first compound 0.5 µM) was 0.108. It also gave a relative viability (LOU-NH91; first compound 0.005 µM) of 0.525, a relative viability (LOU-NH91; first compound 0.01581 µM) of 0.56 and a relative viability (LOU-NH91; first compound 0.05 µM) of 0.489. It also gave a relative viability (LOU-NH91; first compound 0.1581 µM) of 0.385, a relative viability (LOU-NH91; first compound 0.5 µM) of 0.369 and a relative viability (LU99A; first compound 0.005 µM) of 0.372. It also gave a relative viability (LU99A; first compound 0.01581 µM) of 0.305.
